In ChEMBL document CHEMBL1201862, “PubChem BioAssay data set” (2004):
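The compound was tested at five concentrations on cells cultured in 96-well plates, with a 48-hour exposure period. Here, GI50 denotes the concentration required for 50% inhibition of growth.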 Activity calls are given as the source filed them. Rule as the data show it: active = GI50 up to about 1.1 µM and inactive = higher.

Legend:
Test in all cases: NCI tumour cell line growth inhibition, 48 h
M14 = test system: M14
T47D = test system: T47D
NCI-H226 = test system: NCI-H226
OVCAR-4 = test system: OVCAR-4
Hs-578T = test system: Hs-578T
SK-OV-3 = test system: SK-OV-3
TK-10 = test system: TK-10
SNB-75 = test system: SNB-75
RPMI-8226 = test system: RPMI-8226
EKVX = test system: EKVX
COLO 205 = test system: COLO 205
SR = test system: SR
SNB-19 = test system: SNB-19
MDA-MB-435 = test system: MDA-MB-435
PC-3 = test system: PC-3
SF-268 = test system: SF-268
K562 = test system: K562
HOP-92 = test system: HOP-92
A549 = test system: A549
IGROV-1 = test system: IGROV-1

| SMILES | GI50 (M14) | GI50 (T47D) | GI50 (NCI-H226) | GI50 (OVCAR-4) | GI50 (Hs-578T) | GI50 (SK-OV-3) | GI50 (TK-10) | GI50 (SNB-75) | GI50 (RPMI-8226) | GI50 (EKVX) | GI50 (COLO 205) | GI50 (SR) | GI50 (SNB-19) | GI50 (MDA-MB-435) | GI50 (PC-3) | GI50 (SF-268) | GI50 (K562) | GI50 (HOP-92) | GI50 (A549) | GI50 (IGROV-1) |
| --- | --- | --- | --- | --- | --- | --- | --- | --- | --- | --- | --- | --- | --- | --- | --- | --- | --- | --- | --- | --- |
| O=C(c1ccccc1)c1ccc2nc3n(c2c1)C(c1c(F)cccc1F)SC3 (stereo not drawn) | 3.46 µM (inactive) | 4.49 µM (inactive) | 30.6 µM (inactive) | 7.8 µM (inactive) | 8.55 µM (inactive) | 4.1 µM (inactive) | 22.9 µM (inactive) | 4.17 µM (inactive) | 4.62 µM (inactive) | 3.56 µM (inactive) | 4 µM (inactive) | 0.847 µM (active) | 4.98 µM (inactive) | 1.45 µM (inactive) | 6.89 µM (inactive) | 9.66 µM (inactive) | 3.31 µM (inactive) | 10.9 µM (inactive) | 4.79 µM (inactive) | 5.05 µM (inactive) |
| CC(C)=CCc1c(O)c(CC=C(C)C)c2oc3c(c(=O)c2c1O)C(C=C(C)C)Oc1cc(O)ccc1-3 (stereo not drawn) | 7.69 µM (inactive) | 3.5 µM (inactive) | 20.5 µM (inactive) | 7.14 µM (inactive) | 12 µM (inactive) | 14.7 µM (inactive) | 4.17 µM (inactive) | 4.07 µM (inactive) | 3.76 µM (inactive) | 3.88 µM (inactive) | 16 µM (inactive) | 2.49 µM (inactive) | 10.5 µM (inactive) | 3.53 µM (inactive) | 5.41 µM (inactive) | 6.07 µM (inactive) | 3.98 µM (inactive) | 13.5 µM (inactive) | 5.2 µM (inactive) | 7.53 µM (inactive) |
| COc1cccc(/C=N/NC(=O)CSCC(=O)N/N=C/c2cccc(OC)c2OC)c1OC | > 100 µM (inactive) | > 100 µM (inactive) | > 100 µM (inactive) | > 100 µM (inactive) | 37.7 µM (inactive) | > 100 µM (inactive) | > 100 µM (inactive) | > 100 µM (inactive) | > 100 µM (inactive) | > 100 µM (inactive) | > 100 µM (inactive) | > 100 µM (inactive) | > 100 µM (inactive) | > 100 µM (inactive) | > 100 µM (inactive) | > 100 µM (inactive) | > 100 µM (inactive) | > 100 µM (inactive) | > 100 µM (inactive) | > 100 µM (inactive) |
| Oc1ccc(/N=N/c2ccc(Cl)cc2)cc1 | 10.7 µM (inactive) | 15 µM (inactive) | 17.7 µM (inactive) | 14.9 µM (inactive) | 28.8 µM (inactive) | 21.9 µM (inactive) | 18.1 µM (inactive) | 18.9 µM (inactive) | 24.2 µM (inactive) | 17.3 µM (inactive) | 18.4 µM (inactive) | 19.5 µM (inactive) | 18 µM (inactive) | 14.9 µM (inactive) | 14.9 µM (inactive) | 17.7 µM (inactive) | 19.6 µM (inactive) | 12.7 µM (inactive) | 14.2 µM (inactive) | 12.9 µM (inactive) |
| COC(=O)c1sc2nc(Nc3ccccc3)/c(=N\c3ccccc3)sc2c1C |  | > 100 µM (inactive) | > 100 µM (inactive) | 64.7 µM (inactive) | 27.7 µM (inactive) | 32.8 µM (inactive) | 30.5 µM (inactive) | 25 µM (inactive) | > 100 µM (inactive) | 59.6 µM (inactive) | > 100 µM (inactive) | 47.6 µM (inactive) | 36.6 µM (inactive) | > 100 µM (inactive) | > 100 µM (inactive) | 57.3 µM (inactive) | > 100 µM (inactive) | 31.3 µM (inactive) | 65.8 µM (inactive) | 45.4 µM (inactive) |
| N#Cc1c(-c2ccc(Cl)cc2)cc(-c2ccc(Nc3ccnc4cc(Cl)ccc34)cc2)[nH]c1=O | > 100 µM (inactive) | > 100 µM (inactive) | > 100 µM (inactive) | > 100 µM (inactive) | 16.5 µM (inactive) | 34.7 µM (inactive) | 13.1 µM (inactive) | 14.6 µM (inactive) | > 62.5 µM (inactive) | > 82.2 µM (inactive) | > 100 µM (inactive) | > 52.5 µM (inactive) | 27.7 µM (inactive) | > 100 µM (inactive) | > 100 µM (inactive) | 26.2 µM (inactive) | > 54.5 µM (inactive) | 18.1 µM (inactive) | > 100 µM (inactive) | > 100 µM (inactive) |
| CCN(CC)CCCNc1ccc([N+](=O)[O-])c2nc3ccccc3c(N)c12 | 1.08 µM (active) | 0.867 µM (active) | 2.67 µM (inactive) | 0.627 µM (active) | 0.257 µM (active) | 1.51 µM (inactive) | 2.12 µM (inactive) | 1.19 µM (inactive) | 0.555 µM (active) | 1.01 µM (active) |  | 0.512 µM (active) | 0.929 µM (active) | 1.06 µM (active) | 0.804 µM (active) | 1.23 µM (inactive) | 0.478 µM (active) | 1.43 µM (inactive) | 0.537 µM (active) | 0.622 µM (active) |
| O=C(N/N=C\c1ccc(Cl)cc1)Nc1ccc2ccccc2c1 | 59.2 µM (inactive) | > 100 µM (inactive) | > 100 µM (inactive) | 19.8 µM (inactive) | 26.9 µM (inactive) | 94.6 µM (inactive) | 55.5 µM (inactive) | 30.5 µM (inactive) | 70.8 µM (inactive) | 64.9 µM (inactive) | > 100 µM (inactive) | 36.2 µM (inactive) | 30.4 µM (inactive) | 49.7 µM (inactive) | 30.3 µM (inactive) | 26.9 µM (inactive) | > 100 µM (inactive) | 29.6 µM (inactive) | 52 µM (inactive) | 61.5 µM (inactive) |
| COc1cccc2c(Nc3ccc(S(=O)(=O)NC(C)=O)cc3)c3ccc([N+](=O)[O-])cc3nc12 | 53.1 µM (inactive) | 94.4 µM (inactive) | 29.2 µM (inactive) | 97.7 µM (inactive) | 32.3 µM (inactive) | > 100 µM (inactive) | 22.4 µM (inactive) | 8.28 µM (inactive) | 16.3 µM (inactive) | 40.6 µM (inactive) | 28.5 µM (inactive) | 4.15 µM (inactive) | > 45 µM (inactive) | 31.6 µM (inactive) | 20.4 µM (inactive) | 25.1 µM (inactive) | 22 µM (inactive) | 26.2 µM (inactive) | 39.4 µM (inactive) | 11.3 µM (inactive) |
| N=C(N)NCCCC(NC(=O)OCCCCn1ccc(N)nc1=O)C(=O)O (stereo not drawn) | > 100 µM (inactive) | > 100 µM (inactive) | 4.26 µM (inactive) | > 100 µM (inactive) | > 100 µM (inactive) | > 100 µM (inactive) | > 100 µM (inactive) | > 100 µM (inactive) | > 100 µM (inactive) | > 100 µM (inactive) | > 100 µM (inactive) | > 100 µM (inactive) | > 100 µM (inactive) | > 100 µM (inactive) | > 100 µM (inactive) | > 100 µM (inactive) | > 100 µM (inactive) | > 100 µM (inactive) | > 100 µM (inactive) | > 100 µM (inactive) |
| Nc1ccn(C=C=CCO)c(=O)n1 | > 100 µM (inactive) | > 93.8 µM (inactive) | > 100 µM (inactive) | > 100 µM (inactive) | > 100 µM (inactive) | > 100 µM (inactive) | > 100 µM (inactive) | > 93.8 µM (inactive) | 589 µM (inactive) | > 100 µM (inactive) | > 100 µM (inactive) | 190 µM (inactive) | > 100 µM (inactive) | > 100 µM (inactive) | > 100 µM (inactive) | > 100 µM (inactive) | > 100 µM (inactive) | > 66.4 µM (inactive) | > 100 µM (inactive) | > 100 µM (inactive) |
| CC(=O)OC1COC(n2nc(/C=C/c3ccc(Cl)cc3)c(=O)n(/N=C/c3ccccc3)c2=S)C(OC(C)=O)C1OC(C)=O (stereo not drawn) | > 100 µM (inactive) | > 100 µM (inactive) | > 100 µM (inactive) | > 100 µM (inactive) | > 100 µM (inactive) | > 100 µM (inactive) | > 100 µM (inactive) | > 100 µM (inactive) | > 100 µM (inactive) | > 100 µM (inactive) | > 100 µM (inactive) | > 100 µM (inactive) | > 100 µM (inactive) | > 100 µM (inactive) | > 100 µM (inactive) | > 100 µM (inactive) | > 100 µM (inactive) | > 100 µM (inactive) | > 100 µM (inactive) | > 100 µM (inactive) |
| Oc1cc(Br)cc2cc(Br)cnc12 | 2.4 µM (inactive) | 2.8 µM (inactive) | 15.3 µM (inactive) | 1.39 µM (inactive) | 3.24 µM (inactive) | 39.2 µM (inactive) | 43 µM (inactive) | 3.47 µM (inactive) | 2.63 µM (inactive) | 3.85 µM (inactive) | 32.3 µM (inactive) | 1.26 µM (inactive) | 3.33 µM (inactive) | 3.44 µM (inactive) | 3.71 µM (inactive) | 1.1 µM (active) | 1.21 µM (inactive) | 13.7 µM (inactive) | 3.29 µM (inactive) | 1.14 µM (inactive) |
| Cc1ccc(O)c(C(c2cc(C)ccc2O)c2cc([N+](=O)[O-])ccc2O)c1 | 11 µM (inactive) | 16.9 µM (inactive) | 14.4 µM (inactive) | 11.8 µM (inactive) | 7.71 µM (inactive) | 17.7 µM (inactive) | 17.4 µM (inactive) | 5.46 µM (inactive) | 13.7 µM (inactive) | 15.2 µM (inactive) | 17.8 µM (inactive) | 8.43 µM (inactive) | > 10 µM (inactive) | 15 µM (inactive) | 9.02 µM (inactive) | 7.62 µM (inactive) | 23.1 µM (inactive) | 14.8 µM (inactive) | 12.1 µM (inactive) | 10.3 µM (inactive) |
